{
  "source": "patent US6913767B1",
  "about": "“Compositions for microencapsulation of antigens for use as vaccines” (priority 1993, dated 2005)",
  "assay": "Stability (intact fraction) of QS21",
  "assay_type": "physicochemical",
  "details": "same time (74 days), same conditions",
  "description": "QS21 controls were also run. In RP-HPLC analysis, the rgp120 peak elutes before the QS21 peak and, therefore, this method provides simultaneous quantitation of QS21 and rgp120 released from the microspheres.\nMicrospheres containing QS21, or QS21 with MN rgp120, were incubated in physiological buffer at 37° C. to assess the time for release of the second burst.",
  "data": [
    {"substance": "QS21", "values": [
      {"measurement": "intact QS21 in solution", "value": "less than 25%"}
    ]}
  ]
}
